Each structure is given as a SMILES string. Active and inactive are the calls of the source. No rule for the calls is given here. A value given as a limit tells only on which side of the number the result lay.

In this test the test system is Clostridioides difficile clinical isolate growth, OD600, 24 h. Put plainly: C. difficile growth inhibition, confirmation, 4-point retest (AID 1224921).

As a reminder, the AC50 is the midpoint of the concentration-response curve, whichever way the signal moves. With `CO[C@@H]1CN(C)C(=O)c2cc(NC(=O)c3cc(C)on3)ccc2OC[C@H](C)N(C(C)=O)C[C@@H]1C`, the AC50 is > 60 µM (inactive). The value for `C[C@@H]1CCCCO[C@@H](CN(C)CC2CC2)[C@@H](C)CN([C@H](C)CO)C(=O)c2cc(NC(=O)Nc3ccc(C(F)(F)F)cc3)ccc2O1` was 35.5 µM; that for `O=C(C[C@@H]1CC[C@H]2[C@@H](COC[C@H](O)CN2C(=O)Nc2ccc(Cl)c(Cl)c2)O1)NCc1ccc(Cl)c(Cl)c1` was 1.1 µM; that for `CO[C@H](CN(C)Cc1cc(F)ccc1F)[C@@H](C)CN(C(=O)Nc1ccc(C(F)(F)F)cc1)[C@H](C)CO` was 6.43 µM. In the case of `C[C@@H]1CN([C@@H](C)CO)S(=O)(=O)c2ccc(/C=C/c3ccccc3)cc2O[C@H]1CN(C)Cc1ccc(C(=O)O)cc1` it was 1.35 µM; in that of `O=C(C[C@H]1CC[C@H]2[C@@H](COC[C@H](O)CN2C(=O)Nc2cc(Cl)cc(Cl)c2)O1)N1CCOCC1`, 4.04 µM. The value for `CO[C@H]1CN(C)C(=O)c2ccc(NC(=O)Nc3ccc(Cl)c(Cl)c3)cc2OC[C@H](C)NC[C@@H]1C` was 1.2 µM.

In the case of `O=C(C[C@H]1CC[C@@H]2[C@H](COC[C@H](O)CN2C(=O)Nc2ccc(Cl)c(Cl)c2)O1)NCc1ccccc1`, the AC50 was less than 1.95 µM. In the case of `C[C@H](CO)N1C[C@H](C)[C@H](CN(C)CC2CCCCC2)OCCCC[C@H](C)Oc2ccc(NC(=O)Nc3cccc4ccccc34)cc2C1=O`, the AC50 was 29 µM. Take `CO[C@H](CN(C)S(=O)(=O)c1cn(C)cn1)[C@@H](C)CN(C(=O)Nc1ccc(C(F)(F)F)cc1)[C@@H](C)CO`: the AC50 was 2.93 µM.

Regarding `C[C@H](CO)N1C[C@H](C)[C@@H](CN(C)CC2CCCCC2)OCCCC[C@H](C)Oc2ccc(NC(=O)Nc3ccc(C(F)(F)F)cc3)cc2C1=O`, the AC50 was 13.6 µM. In the case of `C[C@@H]1CN([C@H](C)CO)S(=O)(=O)c2ccc(C#CCC3CCCC3)cc2O[C@H]1CN(C)C`, the AC50 was 16.9 µM.

With `CCNC(=O)C[C@H]1CC[C@H]2[C@@H](COC[C@@H](O)CN2C(=O)Nc2ccc(Cl)c(Cl)c2)O1`, the AC50 is 3.9 µM. `CCCNC(=O)C[C@H]1CC[C@@H]2[C@H](COC[C@H](O)CN2C(=O)Nc2ccc(Cl)c(Cl)c2)O1`: the AC50 is 3.77 µM. In the case of `O=C(C[C@H]1CC[C@H]2[C@@H](COC[C@H](O)CN2C(=O)Nc2ccc(Cl)c(Cl)c2)O1)NCc1ccccc1` it was 1.11 µM. The value for `O=C(C[C@@H]1CC[C@@H]2[C@H](COC[C@@H](O)CN2C(=O)Nc2ccc(Cl)c(Cl)c2)O1)NCc1ccccc1` was 1.4 µM; that for `CCCNC(=O)C[C@@H]1CC[C@H]2[C@@H](COC[C@@H](O)CN2C(=O)Nc2ccc(Cl)c(Cl)c2)O1` was 2.59 µM. In the case of `O=C(C[C@@H]1CC[C@@H]2[C@H](COC[C@H](O)CN2C(=O)Nc2ccc(C(F)(F)F)cc2)O1)NCC1CC1`, the AC50 is 1.14 µM. As for `C[C@@H](NC(=O)C[C@@H]1CC[C@@H]2[C@H](COC[C@H](O)CN2C(=O)Nc2cc(Cl)cc(Cl)c2)O1)c1ccccc1`, the AC50 is 9.64 µM. The value for `CO[C@H]1CN(C)C(=O)c2cc(NC(=O)Nc3cc(Cl)cc(Cl)c3)ccc2OC[C@@H](C)NC[C@@H]1C` was 14.7 µM.

Consider `COc1ccccc1-c1ccc2c(c1)O[C@H](CN(C)C(=O)c1ccccc1)[C@H](C)CN([C@H](C)CO)S2(=O)=O`, for which the AC50 was > 60 µM (inactive).

Take `O=C(C[C@@H]1CC[C@@H]2[C@H](COC[C@H](O)CN2C(=O)Nc2ccc(Cl)c(Cl)c2)O1)NCc1ccccc1`: the AC50 was 2.01 µM. In the case of `CC(=O)N[C@@H]1CC[C@H](CCNC(=O)Nc2ccc(C(F)(F)F)cc2)O[C@H]1CO` it was 11.8 µM. In the case of `O=C(NCC[C@H]1CC[C@H](NC(=O)C2CC2)[C@@H](CO)O1)Nc1ccc(C(F)(F)F)cc1` it was 15.6 µM; in that of `CS(=O)(=O)N1[C@H](CO)[C@@H](c2ccc(C#CC3CCCCC3)cc2)[C@@H]1C#N`, 17.6 µM.

In the case of `CO[C@@H]1CN(C)C(=O)c2cc(NC(=O)Nc3ccc(F)cc3)ccc2OC[C@@H](C)NC[C@@H]1C`, the AC50 is > 60 µM (inactive). Turning to `CN(C)CC(=O)N[C@H]1CC[C@H](CCNC(=O)Nc2ccc(C(F)(F)F)cc2)O[C@H]1CO`, the concentration at half-maximal activity (AC50) was 10.9 µM. In the case of `CC(=O)N[C@@H]1CC[C@@H](CCNC(=O)Nc2ccc(C(F)(F)F)cc2)O[C@H]1CO` it was 12.7 µM.

Turning to `COc1cccc(C#Cc2cnc3c(c2)C(=O)N([C@H](C)CO)C[C@H](C)[C@@H](CN(C)C)O3)c1`, the AC50 was 33.2 µM. Take `CO[C@H]1CN(C)C(=O)c2cc(NC(=O)Nc3cc(Cl)cc(Cl)c3)ccc2OC[C@@H](C)NC[C@H]1C`: the concentration at half-maximal activity (AC50) is 9.49 µM. In the case of `O=C(C[C@H]1CC[C@@H]2[C@H](COC[C@H](O)CN2C(=O)Nc2ccc(C(F)(F)F)cc2)O1)NCCc1ccncc1` it was 3.55 µM. Turning to `C[C@H]1CN([C@@H](C)CO)S(=O)(=O)c2ccc(C#Cc3cccc(F)c3)cc2O[C@H]1CN(C)C`, the concentration at half-maximal activity (AC50) is 24.8 µM. The value for `C[C@@H]1CN([C@@H](C)CO)C(=O)c2cccc(NC(=O)Nc3ccc(F)cc3)c2O[C@@H]1CN(C)Cc1ccc(-c2ccccc2)cc1` was less than 0.5 µM; that for `O=C(C[C@H]1CC[C@H](NC(=O)CN2CCOCC2)[C@@H](CO)O1)NCc1cccc(F)c1` was > 60 µM (inactive); that for `O=C(C[C@@H]1CC[C@H]2[C@@H](COC[C@H](O)CN2C(=O)Nc2ccc(Cl)c(Cl)c2)O1)NCc1ccc(Cl)cc1` was 2.61 µM. In the case of `C[C@@H](NC(=O)C[C@H]1CC[C@H]2[C@@H](COC[C@H](O)CN2C(=O)Nc2cccc(Cl)c2)O1)c1ccccc1` it was 9.84 µM; in that of `C[C@@H]1CN([C@@H](C)CO)C(=O)c2cccc(NC(=O)Nc3ccc(C(F)(F)F)cc3)c2O[C@@H]1CN(C)CC1CCCCC1`, 3.63 µM; in that of `N#C[C@@H]1[C@H](c2ccc(C#Cc3ccc(F)cc3)cc2)[C@@H](CO)N1C(=O)C1CCC1`, > 60 µM (inactive). `CO[C@H]1CN(C)C(=O)c2cc(NC(=O)Nc3ccc(Cl)c(Cl)c3)ccc2OC[C@H](C)NC[C@@H]1C`: the AC50 was 8.68 µM. The value for `Cc1ccc(S(=O)(=O)N[C@H]2CC[C@@H](CCNC(=O)Nc3ccc(Cl)cc3)O[C@H]2CO)cc1` was 18.2 µM; that for `CO[C@H]1CN(C)C(=O)c2ccc(NC(=O)Nc3cc(Cl)cc(Cl)c3)cc2OC[C@H](C)NC[C@H]1C` was 14 µM. Regarding `CC(=O)N[C@H]1CC[C@@H](CCNC(=O)Nc2ccc(C(F)(F)F)cc2)O[C@@H]1CO`, the AC50 is 10.8 µM. `O=C(C[C@@H]1CC[C@H]2[C@@H](COC[C@@H](O)CN2C(=O)Nc2ccc(Cl)c(Cl)c2)O1)NCc1ccc(Cl)cc1`: the AC50 was 1.04 µM. For `N#C[C@H]1[C@H](c2ccc(C#Cc3cccc(F)c3)cc2)[C@@H](CO)N1C(=O)C1CCC1`, the AC50 was > 16 µM (inactive). The value for `C[C@@H]1CCCCO[C@@H](CN(C)Cc2ccccc2)[C@H](C)CN([C@@H](C)CO)C(=O)c2cc(NC(=O)Nc3ccc(F)cc3)ccc2O1` was > 16 µM (inactive). The value for `C[C@@H]1CN([C@H](C)CO)C(=O)c2cc(C#Cc3ccccc3F)cnc2O[C@H]1CN(C)C` was 23.3 µM; that for `CCNC(=O)C[C@@H]1CC[C@@H]2[C@H](COC[C@@H](O)CN2C(=O)Nc2ccc(Cl)c(Cl)c2)O1` was 16.5 µM; that for `C[C@H](CO)N1C[C@H](C)[C@H](CN(C)C(=O)Nc2ccc(C(F)(F)F)cc2)Oc2c(NC(=O)Nc3ccccc3)cccc2C1=O` was > 60 µM (inactive). The value for `CO[C@H]1CN(C)C(=O)c2ccc(NC(=O)Nc3ccccc3)cc2OC[C@@H](C)NC[C@@H]1C` was > 60 µM (inactive). Regarding `O=C(C[C@H]1CC[C@@H]2[C@H](COC[C@@H](O)CN2S(=O)(=O)c2ccc(F)cc2)O1)NCC1CCCCC1`, the AC50 was 15.8 µM. In the case of `O=C(C[C@H]1CC[C@H]2[C@@H](COC[C@H](O)CN2C(=O)Nc2ccc(C(F)(F)F)cc2)O1)NC1Cc2ccccc2C1` it was 1.54 µM; in that of `C[C@H]1CN([C@@H](C)CO)S(=O)(=O)c2ccc(C#CC3CCCC3)cc2O[C@@H]1CN(C)Cc1cccnc1`, > 60 µM (inactive); in that of `COc1ccccc1S(=O)(=O)N(C)C[C@@H]1OCc2ccccc2-c2c(n(C)c3ccccc23)C(=O)N([C@H](C)CO)C[C@@H]1C`, > 60 µM (inactive). For the compound `O=C(C[C@H]1CC[C@H]2[C@@H](COC[C@@H](O)CN2C(=O)c2cnccn2)O1)NCc1ccc(Cl)cc1`, the AC50 was > 60 µM (inactive). For `O=C(NCC[C@@H]1CC[C@@H](NC(=O)C2CC2)[C@@H](CO)O1)Nc1ccc(C(F)(F)F)cc1`, the AC50 was 10.7 µM. In the case of `CO[C@@H]1CN(C)C(=O)c2cc(NC(=O)Nc3ccc(C(F)(F)F)cc3)ccc2OC[C@H](C)NC[C@H]1C`, the AC50 was 17.8 µM. Regarding `C[C@@H]1CN([C@H](C)CO)C(=O)c2cc(C#CCc3ccccc3)cnc2O[C@H]1CN(C)CC1CCCC1`, the AC50 was 31 µM. The value for `COc1ccccc1CNC(=O)C[C@H]1CC[C@H]2[C@@H](COC[C@H](O)CN2C(=O)Nc2ccc(C(F)(F)F)cc2)O1` was 12 µM; that for `O=C(C[C@@H]1CC[C@@H]2[C@H](COC[C@@H](O)CN2C(=O)Nc2ccc(C(F)(F)F)cc2)O1)NCC1CCCCC1` was 2.03 µM. The value for `CNC(=O)C[C@@H]1CC[C@H]2[C@@H](COC[C@@H](O)CN2C(=O)Nc2ccc(Cl)c(Cl)c2)O1` was 11.9 µM. In the case of `C[C@@H](NC(=O)C[C@H]1CC[C@@H]2[C@H](COC[C@H](O)CN2C(=O)Nc2cc(Cl)cc(Cl)c2)O1)c1ccccc1` it was 10.9 µM; in that of `O=C(C[C@H]1CC[C@H]2[C@@H](COC[C@@H](O)CN2C(=O)Nc2cc(Cl)cc(Cl)c2)O1)N1CCOCC1`, 9.57 µM; in that of `C[C@H]1CN([C@@H](C)CO)S(=O)(=O)c2ccc(C#CC3CCCCC3)cc2O[C@H]1CN(C)C`, 16.4 µM.

Take `O=C(C[C@H]1CC[C@@H]2[C@H](COC[C@@H](O)CN2S(=O)(=O)c2ccccc2)O1)NCC1CCCCC1`: the AC50 was 15.5 µM. In the case of `O=C(C[C@@H]1CC[C@H]2[C@@H](COC[C@@H](O)CN2CC2CCCCC2)O1)NCc1ccc(Cl)cc1` it was > 60 µM (inactive); in that of `COC(=O)[C@H]1[C@H](CO)[C@H]2Cn3c(ccc(-c4ccccc4)c3=O)[C@H]2N1CC1CCCCC1`, 16.7 µM; in that of `COc1ccccc1CNC(=O)C[C@@H]1CC[C@@H]2[C@H](COC[C@H](O)CN2C(=O)Nc2ccc(C(F)(F)F)cc2)O1`, 0.614 µM.

(Values after PubChem BioAssay AID1224921 (Broad Institute, 2016).)
